Assay results from patent US20190256502A1, “ORGANIC COMPOUNDS” (HOX THERAPEUTICS LIMITED, priority 2016, published 2019).
Like-named read-outs stand apart in the source and are kept apart here.

How the values were obtained:
MDA-MB-231 cells = test: MTT assay for cell killing, breast cancer cell line MDA-MB-231; type: cell-based; details: for IC50: Homo sapiens, MDA-MB-231, MTT, 72h
Experimental: The cytotoxicity of the peptides on the prostate cancer derived cell lines DU145, LnCaP, and PC3, and the breast cancer derived cell line MDA-MB-231 was tested as previously described (Morgan et al. 2014 ibid), using the MTT (3-[4,5-dimethylthiazol-2-yl]-2,5-diphenyltetrazolium bromide) assay for metabolic activity. 7000-16000 cells, depending on the cell line, were seeded onto 96-well cell plate and treated with 5, 10, 20, 40 and 80 μM of each compound for 72h, DMSO alone (negative control) for 72 hr, or HTL001 ([…]; International patent application published as WO2017068353; positive control) for 2 h. After treatment, MTT at a final concentration of 0.5 mg/ml was added. Upon 4h incubation the formed formazan crystals were dissolved in DMSO and the optical density (OD) measured at 540 nm with a spectrofluorimeter. Percentage of cell survival was calculated as a ratio of the mean OD value of treated vs. untreated cells. Experiments were repeated 3 times and statistical analysis performed using Student's t-test. All cell lines were cultured in RPMI media with added 10% FBS, 1% sodium pyruvate and 1% L-Glutamine. They were all cultured in an incubator at 37° C., 5% CO2. The assay was repeated 3 times and the results are given as the mean IC50 for cell killing±standard deviation.
The molecules were tested for their ability to induce cell death using the breast cancer cell line MDA-MB-231, with the HOX/PBX interfering peptide HTL001 (WYKWMKKAARRRRRRRRR; International patent application published as WO2017068353) as a positive control and DMSO as a negative control. Percentage of cell survival was evaluated with the MTT assay after treatment with different concentrations ([…], 10, 20, 40 and 80 μM) of each compound for 72h. The IC50 was evaluated as the concentration of the compound that reduces % of cell survival by half.
MDA-MB-231 cells were treated with different concentrations of Example 2 dissolved in either DMSO or PEG/Tris HCl and MTT assay performed. Data are means±SEM of four independent experiments.

HOXB4/PBX2 dimers = molecular target: T1, HOXB4/PBX2 dimers (Homo sapiens, UniProt P40425); test: Cell based ELISA assay for HOX/PBX binding (HOXB4/PBX2 dimer assay); details: MDA-MB-231 cells treated with 10 μM for 4 hours; compared to negative control (DMSO); read-out: % inhibition of HOXB4/PBX2 dimer formation
T1 construct: endogenous in cells; host or cells: MDA-MB-231
T1 sequence (P40425 1-430): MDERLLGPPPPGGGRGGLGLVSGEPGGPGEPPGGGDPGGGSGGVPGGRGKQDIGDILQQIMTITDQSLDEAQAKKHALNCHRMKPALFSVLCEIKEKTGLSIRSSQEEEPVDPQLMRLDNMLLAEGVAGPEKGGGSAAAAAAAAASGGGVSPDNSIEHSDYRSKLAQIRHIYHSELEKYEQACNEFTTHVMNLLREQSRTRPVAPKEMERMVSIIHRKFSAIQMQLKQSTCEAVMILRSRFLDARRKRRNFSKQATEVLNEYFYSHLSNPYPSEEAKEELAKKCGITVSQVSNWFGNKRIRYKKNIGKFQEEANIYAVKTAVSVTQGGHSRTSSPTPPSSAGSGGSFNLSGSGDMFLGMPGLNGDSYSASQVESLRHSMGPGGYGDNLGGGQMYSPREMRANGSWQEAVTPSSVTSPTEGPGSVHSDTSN
Experimental: In order to directly assess the ability of each compound to disrupt HOX/PBX binding a cell-based assay system was developed that could allow the formation of HOX/PBX/DNA dimers. Cultured MDA-MB-231 cells were treated with 10 μM of each compound for 4 hours and then used to generate a cell lysate using a standard preparation method as described below. HOXB4/PBX2 dimers were then measured using an ELISA-based system as detailed in the table below. The values from this assay are expressed as % inhibition of dimer formation compared to a negative control (DMSO).
1. Collect approximately 5.0×10^7 cells by low-speed centrifugation at RT for 5 min. Carefully remove culture medium. 2. Wash the cellular debris (pellet) with PBS at RT, and collect by low-speed centrifugation. Carefully remove supernatant (total protein). 3. Add 1.0 ml of pre-cold RIPA buffer (or other appropriate buffer) with freshly added (Protease Inhibitors) and/or (Phosphatase Inhibitors). Gently resuspend cells in RIPA buffer with a pipet and incubate on ice for 30 min. 4. Further disrupt and homogenize cells by passing through a 21-gauge needle, dounce homogenization or sonication, taking care not to raise the temperature of the lysate. (Optional: Add 10 μl of 10 mg/ml PMSF stock) Incubate 30 min on ice. 5. Transfer to microcentrifuge tube(s) and centrifuge at 10,000×g for 10 min at 4° C. […]

cFOS [1] = test: cFOS expression in MDA-MB-231 cells (qRT-PCR); type: cell-based; details: for fold induction at 33 µM: Homo sapiens, qRT-PCR; for fold induction at 33 µM / cFos expression compared to untreated MDA-MB-231 cells: MDA-MB-231 cells, 2h, 33 μM
Experimental: MDA-MB-231 cells were seeded in 25 cm^2 plates and treated for 2h with 33 μM of each compound at 80% confluence. RNA was isolated using RNeasy Mini Kit-QIAGEN according to manufacturer's instructions and quantified with NanoDrop ND-1000. cDNA was generated from 1 μg of total RNA using High Capacity cDNA Reverse Transcription Kit in a 25 μl final reaction volume according to the manufacturer protocol. The expression of cFOS was quantified by qRT-PCR. Real-time PCR reactions were performed using 1:10 dilution (5 μl/well) of each cDNA added to TaqMan Universal PCR Master Mix and TaqMan Gene Expression Assay Hs00170630_m1 FOS. Amplification of glyceraldehyde 3-phosphate dehydrogenase (GAPDH) probe was performed as endogenous control. The comparative Ct method (ΔΔCt algorithm) was used for analysis. Independent experiments were performed in triplicates and repeated three times. Statistical analysis was performed with Student's t-test.
MDA MB 231 cells were treated for 4h with 4×IC50 Example 2 in PEG/Tris HCl. RNA was isolated and RT-PCR performed to detect expression of cFOS. Data are means±SEM of four independent experiments. Significance to PEG/Tris HCl: **p<0.01 (Ttest).

MDA-MB-231 tumour = test: In vivo study, MDA-MB-231 tumour in Balb-c nude mice; details: 20 mg/Kg, IP, day 0, 3, 6, 9, 10 & 13
Experimental: MDA-MB-231 cells were injected subcutaneously into female or male Balb-c nude mice aged 6 to 12 weeks (Harlan, UK). When the tumour size reached 100 mm^3 mice were injected intratumouraly with Example 2 at the intervals shown on the graph. Mice were sacrificed when the tumour size reached 1000 mm^3 or at the end of the experiment (14 days).
Treatment of MDA-MB-231 tumour with Example 2 (ICT9119): Group 1—Untreated controls Group 2—10% DMSO/Oil solvent control, IP, day 0, 3, 6, 9, 10 & 13 Group 3—Example 2, 20 mg/Kg, IP, day 0, 3, 6, 9, 10 & 13

Solubility studies = type: physicochemical
Text: Example 2 was solubilised in PEG400 and propylene glycol (PG).

cFOS [2] = test: cFOS expression in PC3 prostate cancer cells (RT-PCR); type: cell-based; details: 4h, 120 μM in PEG/Tris HCl
Experimental: (§1) PC3 cells were treated for 4h with 120 μM Example 2 in PEG/Tris HCl. RNA was isolated and RT-PCR performed to detect expression of cFOS and DUSP1. Data are means±SEM of three independent experiments. Significance to PEG/Tris HCl: **p<0.01, ***p<0.001 (Ttest).

DUSP1 [3] = test: DUSP1 expression in PC3 prostate cancer cells (RT-PCR); type: cell-based; details: 4h, 120 μM in PEG/Tris HCl
Experimental: as §1

cFOS [4] = test: cFOS expression in DU145 prostate cancer cells (RT-PCR); type: cell-based; details: 4h, 120 μM in PEG/Tris HCl
Experimental: (§2) DU145 cells were treated for 4h with 120 μM Example 2 in PEG/Tris HCl. RNA was isolated and RT-PCR performed to detect expression of cFOS and DUSP1. Data are means±SEM of three independent experiments. *p<0.05 (Ttest).

DUSP1 [5] = test: DUSP1 expression in DU145 prostate cancer cells (RT-PCR); type: cell-based; details: 4h, 120 μM in PEG/Tris HCl
Experimental: as §2

[6] = average of experiments, read-out: IC50 Average
[7] = single experiment 1, read-out: IC50 Exp1
[8] = single experiment 2, read-out: IC50 Exp2
[9] = single experiment 3, read-out: IC50 Exp3
[10] = single experiment 4, read-out: IC50 Exp4
[11] = MDA-MB-231 tumour in Balb-c nude mice
[12] = no induced cell death observed at 80 μM, read-out: IC50 values for the urea analogue reference examples

SMILES | IC50 (MDA-MB-231 cells; [6]) | IC50 (MDA-MB-231 cells; [7]) | IC50 (MDA-MB-231 cells; [8]) | IC50 (MDA-MB-231 cells; [9]) | IC50 (MDA-MB-231 cells; [12]) | further results
C=C(C)CNC(=S)NCC(c1cccs1)c1c[nH]c2ccccc12 (stereo not shown) [Example 5] | 45.5 µM | 47.9 µM | 45 µM | 43.7 µM | – | inhibition at 10 µM (HOXB4/PBX2 dimers): 39.2%; fold induction at 33 µM (cFOS [1]): 37.4; cFos expression compared to untreated MDA-MB-231 cells (cFOS [1]): significant increase
CCCCNC(=S)NCC(c1cccs1)c1c[nH]c2ccccc12 (stereo not shown) [Example 9] | 41.2 µM | 40.9 µM | 37.3 µM | 29.8 µM | – | IC50 (MDA-MB-231 cells; [10]): 41 µM; IC50 (MDA-MB-231 cells; single experiment 5, read-out: IC50 Exp5): 57.2 µM
CCCCCCNC(=S)NCC(c1cccs1)c1c[nH]c2ccccc12 (stereo not shown) [Example 2, 1-hexyl-3-[2-(1H-indol-3-yl)-2-(2-thienyl)ethyl]thiourea] | 37.9 µM | 36.7 µM | 39 µM | – | – | MDA-MB-231 cell survival, in PEG/Tris HCl in comparison with in DMSO (MDA-MB-231 cells; MTT assay, four independent experiments, p<0.05): significantly decreased; cFOS expression in MDA-MB-231 cells (cFOS [1]; 4h, 4×IC50, in PEG/Tris HCl, p<0.01 to PEG/Tris HCl): significantly increased; Maximum % weight loss (MDA-MB-231 tumour; Balb-c nude mice): 0%; Growth delay (MDA-MB-231 tumour; [11]): 4.2 days; Median time RTV 2 (MDA-MB-231 tumour; [11]): 8.9 days; behaviour on dilution with water (Solubility studies; diluted with water with polysorbate 80 (Tween 80) at a final concentration of 5%): remained in solution; concentration achieved in propylene glycol (PG) (Solubility studies; solubilised in PG): up to 5 mg/mL; cFOS expression in PC3 cells (cFOS [2]): significantly increased; DUSP1 expression in PC3 cells (DUSP1 [3]): significantly increased; cFOS expression in DU145 cells (cFOS [4]): significantly increased; DUSP1 expression in DU145 cells (DUSP1 [5]): significantly increased
CCCNC(=O)NCC(c1ccsc1)c1c[nH]c2ccccc12 (stereo not shown) [C, reference compound] | – | – | – | – | > 80 µM | –
CCCCCNC(=S)NCC(c1cccs1)c1c[nH]c2ccccc12 (stereo not shown) [Example 3, 1-pentyl-3-[2-(1H-indol-3-yl)-2-(2-thienyl)ethyl]thiourea] | 35.3 µM | 21.3 µM | 49.2 µM | – | – | –
O=C(NCC1CC1)NCC(c1cccs1)c1c[nH]c2ccccc12 (stereo not shown) [B, reference compound] | – | – | – | – | > 80 µM | –
S=C(NCC1CCCCC1)NCC(c1cccs1)c1c[nH]c2ccccc12 (stereo not shown) [Example 4, 1-cyclohexylmethyl-3-[2-(1H-indol-3-yl)-2-(2-thienyl)ethyl]thiourea] | 53 µM | 65.8 µM | 40.3 µM | – | – | –
CCCCCCCNC(=S)NCC(c1cccs1)c1c[nH]c2ccccc12 (stereo not shown) [Example 1, 1-heptyl-3-[2-(1H-indol-3-yl)-2-(2-thienyl)ethyl]thiourea] | 33 µM | 21.8 µM | 44.3 µM | – | – | fold induction at 33 µM (cFOS [1]): 32.5; cFos expression compared to untreated MDA-MB-231 cells (cFOS [1]): significant increase
C#CCNC(=O)NCC(c1cccs1)c1c[nH]c2ccccc12 (stereo not shown) [A, reference compound] | – | – | – | – | > 80 µM | –
CCCNC(=S)NCC(c1cccs1)c1c[nH]c2ccccc12 (stereo not shown) [Example 8] | 51.9 µM | 42.7 µM | 48.6 µM | 56.1 µM | – | IC50 (MDA-MB-231 cells; [10]): 59.9 µM
CCNC(=S)NCC(c1cccs1)c1c[nH]c2ccccc12 (stereo not shown) [Example 7] | 60.9 µM | 51.8 µM | 65.8 µM | 65 µM | – | –
C=C(C)CNC(=O)NCC(c1ccsc1)c1c[nH]c2ccccc12 (stereo not shown) [D, reference compound] | – | – | – | – | > 80 µM | –
CNC(=S)NCC(c1cccs1)c1c[nH]c2ccccc12 (stereo not shown) [Example 6] | 61.6 µM | 68 µM | 48 µM | 68.9 µM | – | –
